Drawing on patent US20260285857A1, “BICYCLIC AND HETEROCYCLIC AMIDE COMPOUNDS” (priority 2024, published 2026), this text covers DSF for 25 molecules.

This test concerns immunoglobulin light chain protein WIL-FL T46L. The test is described as follows: Differential scanning fluorimetry (thermal shift) assay. Format: binding. The note with it: temperature shift [Tm]compound-[Tm]vehicle, recombinant WIL-FL T46L. (In general: DSF heats the sample and reads unfolding from a dye or from intrinsic fluorescence.)

Turning to `Cc1nc(C2C3(c4nc5c(C)cc(N6CC[C@](C)(c7ccccc7)C6)cn5n4)CC2(C(C)(C)O)CO3)n[nH]1` (mixture of isomers) [Compound 3, 2-[1-[8-methyl-6-[rac-(3R)-3-methyl-3-phenyl-pyrrolidin-1-yl]-[1,2,4]triazolo[1,5-a]pyridin-2-yl]-5-(5-methyl-1H-1,2,4-triazol-3-yl)-2-oxabicyclo[2.1.1]hexan-4-yl]propan-2-ol], the DSF entry (Table A) is given as “***** (>2.5° C.=*****)”.

Regarding `Cc1cc(N2CC[C@](C)(c3ccccc3)C2)cn2nc(C(=O)N3CCC4(CCN(c5ccc(C#N)c(C(=O)O)n5)C4)C3)nc12` (mixture of isomers) [Compound 609, 3-cyano-6-[2-[8-methyl-6-[rac-(3R)-3-methyl-3-phenyl-pyrrolidin-1-yl]-[1,2,4]triazolo[1,5-a]pyridine-2-carbonyl]-2,7-diazaspiro[4.4]nonan-7-yl]pyridine-2-carboxylic acid], for the setting “Table B”, the DSF entry is listed as “***** (>2.5° C.=*****)”.

With `Cc1cc(N2CC[C@](C)(c3ccccc3)C2)cn2nc(C(=O)NC3CC[C@]4(CCN(c5cccc(C(=O)O)n5)C4)C3)nc12` (mixture of isomers) [Compound 633, 6-[rac-(5S)-8-[[8-methyl-6-[rac-(3R)-3-methyl-3-phenyl-pyrrolidin-1-yl]-[1,2,4]triazolo[1,5-a]pyridine-2-carbonyl]amino]-2-azaspiro[4.4]nonan-2-yl]pyridine-2-carboxylic acid], the DSF entry (Table B) is given as “***** (>2.5° C.=*****)”.

As for `Cc1cc(N2CC[C@](C)(c3ccccc3)C2)cn2nc(C(=O)NC3CC[C@@]4(CCN(c5cccc(C(=O)O)n5)C4)C3)nc12` (mixture of isomers) [Compound 634, 6-[rac-(5R)-8-[[8-methyl-6-[rac-(3R)-3-methyl-3-phenyl-pyrrolidin-1-yl]-[1,2,4]triazolo[1,5-a]pyridine-2-carbonyl]amino]-2-azaspiro[4.4]nonan-2-yl]pyridine-2-carboxylic acid], the DSF result (Table B) was “***** (>2.5° C.=*****)”.

Turning to `Cc1cc(N2CC[C@](C)(c3ccccc3)C2)cn2nc(C(=O)NC34COC(CN(c5cccc(C(=O)O)n5)C3)C4)nc12` (mixture of isomers) [Compound 690, 6-[1-[[8-methyl-6-[rac-(3R)-3-methyl-3-phenyl-pyrrolidin-1-yl]-[1,2,4]triazolo[1,5-a]pyridine-2-carbonyl]amino]-6-oxa-3-azabicyclo[3.2.1]octan-3-yl]pyridine-2-carboxylic acid], under “Table B”, the DSF result was “***** (>2.5° C.=*****)”.

In the case of `Cc1nc(C2C3(C(=O)O)COC2(c2nc4c(C)cc(N5CC[C@](C)(c6ccccc6)C5)cn4n2)C3)n[nH]1` (stereo partly drawn) [Compound 1A, 5-(5-methyl-1H-1,2,4-triazol-3-yl)-1-(8-methyl-6-((R)-3-methyl-3-phenylpyrrolidin-1-yl)-[1,2,4]triazolo[1,5-a]pyridin-2-yl)-2-oxabicyclo[2.1.1]hexane-4-carboxylic acid], the DSF entry (Table A) is listed as “***** (>2.5° C.=*****)”.

`Cc1cc(N2CC[C@](C)(c3ccccc3)C2)cn2nc(C34CC(N)(CO3)C4CO)nc12` (stereo partly drawn) [Compound 4, (4-amino-1-(8-methyl-6-((R)-3-methyl-3-phenylpyrrolidin-1-yl)-[1,2,4]triazolo[1,5-a]pyridin-2-yl)-2-oxabicyclo[2.1.1]hexan-5-yl)methanol]: the DSF result (Table A) was “***** (>2.5° C.=*****)”.

In the case of `Cc1cc(N2CC[C@](C)(c3ccccc3)C2)cn2nc(C34CC(N)(CO3)C4)nc12` [Compound 5, 1-[8-methyl-6-[(3R)-3-methyl-3-phenyl-pyrrolidin-1-yl]-[1,2,4]triazolo[1,5-a]pyridine-2-yl]-2-oxabicyclo[2.1.1]hexan-4-amine], the DSF entry (Table A) is listed as “***** (>2.5° C.=*****)”.

For `Cc1cc(N2CC[C@](C)(c3ccccc3)C2)cn2nc(C34CC(CO3)C4c3nc(C(N)=O)n[nH]3)nc12` (stereo partly drawn) [Compound 6, 5-[1-[8-methyl-6-[(3R)-3-methyl-3-phenyl-pyrrolidin-1-yl]-[1,2,4]triazolo[1,5-a]pyridine-2-yl]-2-oxabicyclo[2.1.1]hexan-5-yl]-1H-1,2,4-triazole-3-carboxamide], the DSF result (Table A) is “***** (>2.5° C.=*****)”.

As to `Cc1cc(N2CC[C@](C)(c3ccccc3)C2)cn2nc(C34CC(CO3)C4CNc3cccc(C(=O)O)n3)nc12` (stereo partly drawn) [Compound 8, 6-[[1-[8-methyl-6-[(3R)-3-methyl-3-phenyl-pyrrolidin-1-yl]-[1,2,4]triazolo[1,5-a]pyridin-2-yl]-2-oxabicyclo[2.1.1]hexan-5-yl]methylamino]pyridine-2-carboxylic acid], the DSF entry (Table A) is on record as “***** (>2.5° C.=*****)”.

With `Cc1nc(CC2C3COC2(c2nc4c(C)cc(N5CC[C@](C)(c6ccccc6)C5)cn4n2)C3)n[nH]1` (stereo partly drawn) [Compound 9, 8-methyl-6-[(3R)-3-methyl-3-phenyl-pyrrolidin-1-yl]-2-[5-[(5-methyl-1H-1,2,4-triazol-3-yl)methyl]-2-oxabicyclo[2.1.1]hexan-1-yl]-[1,2,4]triazolo[1,5-a]pyridine], the DSF result (Table A) was “***** (>2.5° C.=*****)”.

Regarding `CC(=O)Nc1n[nH]c(C2C3COC2(c2nc4c(C)cc(N5CC[C@](C)(c6ccccc6)C5)cn4n2)C3)n1` (stereo partly drawn) [Compound 10, N-[5-[1-[8-methyl-6-[(3R)-3-methyl-3-phenyl-pyrrolidin-1-yl]-[1,2,4]triazolo[1,5-a]pyridine-2-yl]-2-oxabicyclo[2.1.1]hexan-5-yl]-1H-1,2,4-triazol-3-yl]acetamide], the DSF result (Table A) is recorded as “***** (>2.5° C.=*****)”.

For `Cc1cc(N2CC[C@](C)(c3ccccc3)C2)cn2nc(C34CC(CO3)C4c3cn(C)nn3)nc12` (stereo partly drawn) [Compound 11, 8-methyl-6-[(3R)-3-methyl-3-phenyl-pyrrolidin-1-yl]-2-[5-(1-methyltriazol-4-yl)-2-oxabicyclo[2.1.1]hexan-1-yl]-[1,2,4]triazolo[1,5-a]pyridine], the DSF entry (Table A) is “***** (>2.5° C.=*****)”.

As to `Cc1cc(N2CC[C@](C)(c3ccccc3)C2)cn2nc(C3OC4(CO)CC3(C(N)=O)C4)nc12` (stereo partly shown) [Compound 12], where the note is “Table A”, the DSF entry was “***** (>2.5° C.=*****)”.

Consider `Cc1cc(N2CC[C@](C)(c3ccccc3)C2)cn2nc(C34CC(CO3)C4c3noc(=O)[nH]3)nc12` (stereo partly drawn) [Compound 13, 3-[1-[8-methyl-6-[(3R)-3-methyl-3-phenyl-pyrrolidin-1-yl]-[1,2,4]triazolo[1,5-a]pyridin-2-yl]-2-oxabicyclo[2.1.1]hexan-5-yl]-4H-1,2,4-oxadiazol-5-one], for which, under “Table A”, the DSF result is recorded as “***** (>2.5° C.=*****)”.

As to `CNC(=O)c1nc2c(C)cc(N3CCC(C)(c4ncco4)C3)cn2n1` (stereo not shown) [Compound 14, N,8-dimethyl-6-(3-methyl-3-(oxazol-2-yl)pyrrolidin-1-yl)-[1,2,4]triazolo[1,5-a]pyridine-2-carboxamide], for the setting “Table A”, the DSF result was “** (>0.5-1 °C =**)”.

As to `CNC(=O)c1nc2c(C)cc(N3CCC(C)(c4nccs4)C3)cn2n1` (stereo not shown) [Compound 15, N,8-dimethyl-6-(3-methyl-3-(thiazol-2-yl)pyrrolidin-1-yl)-[1,2,4]triazolo[1,5-a]pyridine-2-carboxamide], where the note is “Table A”, the DSF entry was “***** (>2.5° C.=*****)”.

Regarding `CNC(=O)c1nc2c(C)cc(OC3CCC3(C)c3ccccc3)cn2n1` (stereo not shown) [Compound 16, N,8-dimethyl-6-(2-methyl-2-phenylcyclobutoxy)-[1,2,4]triazolo[1,5-a]pyridine-2-carboxamide], the DSF result (Table A) was “* (0-0.5° C.=*)”.

Take `Cc1cccc(C2CCC23CN(c2cc(C)c4nc(C(=O)N5CC[C@@]6(CCN(c7cccc(C(=O)O)n7)C6)C5)nn4c2)C3)c1` (stereo partly drawn) [Compound 17, 6-((5R)-7-(8-methyl-6-(5-(m-tolyl)-2-azaspiro[3.3]heptan-2-yl)-[1,2,4]triazolo[1,5-a]pyridine-2-carbonyl)-2,7-diazaspiro[4.4]nonan-2-yl)picolinic acid]: under “Table A”, the DSF result is “***** (>2.5° C.=*****)”.

As to `Cc1cc(N2CC[C@](C)(c3ccccc3)C2)cn2nc(C(=O)NC3CC4(COC4)C3)nc12` [Compound 18, (R)-8-methyl-6-(3-methyl-3-phenylpyrrolidin-1-yl)-N-(2-oxaspiro[3.3]heptan-6-yl)-[1,2,4]triazolo[1,5-a]pyridine-2-carboxamide], the DSF entry (Table A) is given as “***** (>2.5° C.=*****)”.

With `Cc1cc(N2CC[C@](C)(c3ccccc3)C2)cn2nc(C(=O)NC3CCN(c4cccc(C(=O)O)n4)C3)nc12` (stereo partly drawn) [Compound 19, 6-(3-(8-methyl-6-((R)-3-methyl-3-phenylpyrrolidin-1-yl)-[1,2,4]triazolo[1,5-a]pyridine-2-carboxamido)pyrrolidin-1-yl)picolinic acid], the DSF entry (Table A) is reported as “***** (>2.5° C.=*****)”.

For the molecule `Cc1cc(N2CC[C@](C)(c3ccccc3)C2)cn2nc(C(=O)NC3CCN(c4cccc(C(=O)O)n4)CC34COC4)nc12` (stereo partly drawn) [Compound 20, 6-(9-(8-methyl-6-((R)-3-methyl-3-phenylpyrrolidin-1-yl)-[1,2,4]triazolo[1,5-a]pyridine-2-carboxamido)-2-oxa-6-azaspiro[3.5]nonan-6-yl)picolinic acid], the DSF entry (Table A) is listed as “***** (>2.5° C.=*****)”.

`Cc1cc(N2CC[C@](C)(c3ncco3)C2)cn2nc(C(=O)N3CC[C@@]4(CCN(c5cccc(C(=O)O)n5)C4)C3)nc12` [Compound 21, 6-((R)-7-(8-methyl-6-((S)-3-methyl-3-(oxazol-2-yl)pyrrolidin-1-yl)-[1,2,4]triazolo[1,5-a]pyridine-2-carbonyl)-2,7-diazaspiro[4.4]nonan-2-yl)picolinic acid]: the DSF result (Table A) is “*** (>1-1.5° C.=***)”.

As for `C[C@]1(c2ccccc2)CCN(c2cc(N)c3cc(C(=O)N4CC[C@@]5(CCN(c6cccc(C(=O)O)n6)C5)C4)nn3c2)C1` [Compound 22, 6-((R)-7-(4-amino-6-((R)-3-methyl-3-phenylpyrrolidin-1-yl)pyrazolo[1,5-a]pyridine-2-carbonyl)-2,7-diazaspiro[4.4]nonan-2-yl)picolinic acid], for the setting “Table A”, the DSF entry is recorded as “**** (>1.5-2.5° C.=****)”.

`Cc1cc(N2CCC(C)(C3CC4(CC4)C3)C2)cn2nc(C(=O)N3C[C@@H]4CN(c5cccc(C(=O)O)n5)C[C@@H]4C3)nc12` (stereo partly drawn) [Compound 23, 6-((3aR,6aS)-5-(8-methyl-6-(3-methyl-3-(spiro[2.3]hexan-5-yl)pyrrolidin-1-yl)-[1,2,4]triazolo[1,5-a]pyridine-2-carbonyl)hexahydropyrrolo[3,4-c]pyrrol-2(1H)-yl)picolinic acid]: the DSF result (Table A) is “**** (>1.5-2.5° C.=****)”.
